In PubChem BioAssay AID1259411 (Chemical Carcinogenesis Research Information System (CCRIS), 2018):
Activity calls are given as the source filed them. How the calls were made is not given here.

Tested on: rodent carcinogenicity bioassays, tumor incidence
Test: CCRIS carcinogenicity studies
In short: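 Archive of carcinogenicity, mutagenicity, tumor promotion and tumor inhibition results drawn from journals, NCI reports and other sources, expert-reviewed; covers 1985-2011 and is no longer updated.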

CN(C)c1ccccc1
carcinogen call (Species: MOUSE, Strain/Sex: B6C3F1/FEMALE, Route: GAVAGE, Dose: 0, 15, 30 MG/KG IN CORN OIL FOR 103 WK (STUDY DURATION: 105 WK), Dose: 0, 15, 30 MG/KG IN CORN OIL FOR 103 WK (STUDY DURATION: 105 WK), Tumor Site: Type of Lesion: FORESTOMACH: SQUAMOUS CELL PAPILLOMA): equivocal
carcinogen call (Species: MOUSE, Strain/Sex: B6C3F1/MALE, Route: GAVAGE, Dose: 0, 15, 30 MG/KG IN CORN OIL FOR 103 WK (STUDY DURATION: 105 WK), Dose: 0, 15, 30 MG/KG IN CORN OIL FOR 103 WK (STUDY DURATION: 105 WK)): inactive; negative
carcinogen call (Species: RAT, Strain/Sex: F344/FEMALE, Route: GAVAGE, Dose: 0, 3, 30 MG/KG IN CORN OIL 5 D/WK FOR 103 WK (STUDY DURATION: 105 WK), Dose: 0, 3, 30 MG/KG IN CORN OIL 5 D/WK FOR 103 WK (STUDY DURATION: 105 WK)): inactive; negative
carcinogen call (Species: RAT, Strain/Sex: F344/MALE, Route: GAVAGE, Dose: 0, 3, 30 MG/KG IN CORN OIL 5 D/WK FOR 103 WK (STUDY DURATION: 105 WK), Dose: 0, 3, 30 MG/KG IN CORN OIL 5 D/WK FOR 103 WK (STUDY DURATION: 105 WK), Tumor Site: Type of Lesion: SPLEEN: SARCOMA, SARCOMA OR OSTEOSARCOMA): active; positive

CCCCCCOc1cc2c(c3ccc4ccccc4c13)CCC2=O
carcinogen call (Species: MOUSE, Strain/Sex: TO/MALE, FEMALE, Route: DERMAL, Dose: 0, 50 UG (10 µL OF A 0.5% W/V TOLUENE SOLUTION) 2/WK FOR 70 WK (STUDY DURATION: 70 WK)): inactive; negative

O=P(O)(OCC(Br)CBr)OCC(Br)CBr (stereo unspecified)
carcinogen call (Species: RAT, Strain/Sex: WISTAR/FEMALE, Route: ORAL, Dose: 0, 80, 400, 2000 IN DIET FOR 24 MO (STUDY DURATION: 24 MO), Dose: 0, 80, 400, 2000 IN DIET FOR 24 MO (STUDY DURATION: 24 MO), Tumor Site: Type of Lesion: LIVER: HEPATOCELLULAR CARCINOMA, SMALL INTESTINE: ADENOCARCINOMA, FORESTOMACH: PAPILLOMA, ESOPHAGUS: PAPILLOMA, Tumor Site: Type of Lesion: LIVER: HEPATOCELLULAR CARCINOMA, SMALL INTESTINE: ADENOCARCINOMA, FORESTOMACH: PAPILLOMA, ESOPHAGUS: PAPILLOMA): active; positive
carcinogen call (Species: RAT, Strain/Sex: WISTAR/MALE, Route: ORAL, Dose: 0, 80, 400, 2000 IN DIET FOR 24 MO (STUDY DURATION: 24 MO), Dose: 0, 80, 400, 2000 IN DIET FOR 24 MO (STUDY DURATION: 24 MO), Tumor Site: Type of Lesion: SMALL INTESTINE: ADENOCARCINOMA, FORESTOMACH: PAPILLOMA, ESOPHAGUS: PAPILLOMA, Tumor Site: Type of Lesion: SMALL INTESTINE: ADENOCARCINOMA, FORESTOMACH: PAPILLOMA, ESOPHAGUS: PAPILLOMA): active; positive

O=C1C2(Cl)C3(Cl)C4(Cl)C(Cl)(Cl)C5(Cl)C3(Cl)C1(Cl)C5(Cl)C24Cl (stereo unspecified)
carcinogen call (Species: MOUSE, Strain/Sex: B6C3F1/FEMALE, Route: ORAL, Dose: 20, 40 MG/KG IN DIET, TWA, Tumor Site: Type of Lesion: LIVER: HEPATOCELLULAR CARCINOMA): active; positive
carcinogen call (Species: MOUSE, Strain/Sex: B6C3F1/MALE, Route: ORAL, Dose: 20, 23 MG/KG IN DIET, TWA, Tumor Site: Type of Lesion: LIVER: HEPATOCELLULAR CARCINOMA): active; positive
carcinogen call (Species: RAT, Strain/Sex: OSBORNE-MENDEL/FEMALE, Route: ORAL, Dose: 18, 26 MG/KG IN DIET, TWA, Tumor Site: Type of Lesion: LIVER: HEPATOCELLULAR CARCINOMA): active; positive
carcinogen call (Species: RAT, Strain/Sex: OSBORNE-MENDEL/MALE, Route: ORAL, Dose: 8, 24 MG/KG IN DIET, TWA, Tumor Site: Type of Lesion: LIVER: HEPATOCELLULAR CARCINOMA): active; positive

CC(C)(C)O
carcinogen call (Species: MOUSE, Strain/Sex: B6C3F1/FEMALE, Route: ORAL, Dose: 0, 5, 10, 20 MG/ML IN DRINKING WATER FOR 103 WK (STUDY DURATION: 103 WK), Dose: 0, 5, 10, 20 MG/ML IN DRINKING WATER FOR 103 WK (STUDY DURATION: 103 WK), Tumor Site: Type of Lesion: THYROID GLAND: FOLLICULAR CELL ADENOMA): active; positive
carcinogen call (Species: MOUSE, Strain/Sex: B6C3F1/MALE, Route: ORAL, Dose: 0, 5, 10, 20 MG/ML IN DRINKING WATER FOR 103 WK (STUDY DURATION: 103 WK), Dose: 0, 5, 10, 20 MG/ML IN DRINKING WATER FOR 103 WK (STUDY DURATION: 103 WK), Tumor Site: Type of Lesion: THYROID GLAND: FOLLICULAR CELL ADENOMA OR CARCINOMA): equivocal
carcinogen call (Species: RAT, Strain/Sex: F344/FEMALE, Route: ORAL, Dose: 0, 2.5, 5, 10 MG/ML IN DRINKING WATER FOR 103 WK (STUDY DURATION: 103 WK), Dose: 0, 2.5, 5, 10 MG/ML IN DRINKING WATER FOR 103 WK (STUDY DURATION: 103 WK)): inactive; negative
carcinogen call (Species: RAT, Strain/Sex: F344/MALE, Route: ORAL, Dose: 0, 1.25, 2.5, 5 MG/ML IN DRINKING WATER FOR 103 WK (STUDY DURATION: 103 WK), Dose: 0, 1.25, 2.5, 5 MG/ML IN DRINKING WATER FOR 103 WK (STUDY DURATION: 103 WK), Tumor Site: Type of Lesion: KIDNEY (RENAL TUBULE): ADENOMA OR CARCINOMA): active; positive

CC(O)CN(N=O)C(=O)NCCCl (stereo unspecified)
carcinogen call (Species: RAT, Strain/Sex: F344/FEMALE, Route: INTRAVESICULAR, Dose: 0, 4.6 MG 2/WK FOR 30 WK (STUDY DURATION: LIFETIME), Tumor Site: Type of Lesion: BLADDER: TUMOR): active; positive
carcinogen call (Species: RAT, Strain/Sex: F344/FEMALE, Route: ORAL, Dose: 0, 46 MG/L IN DRINKING WATER 5 D/WK FOR 30 WK (STUDY DURATION: LIFETIME), Tumor Site: Type of Lesion: BLADDER: TUMOR, THYROID: FOLLICULAR TUMOR): active; positive
carcinogen call (Species: RAT, Strain/Sex: F344/MALE, Route: ORAL, Dose: 0, 46 MG/L IN DRINKING WATER 5 D/WK FOR 30 WK (STUDY DURATION: LIFETIME)): inactive; negative

Clc1nc(Cl)nc(Nc2ccccc2Cl)n1
carcinogen call (Species: MOUSE, Strain/Sex: B6C3F1/FEMALE, Route: ORAL, Dose: 0, 500, 1000 PPM IN DIET, Dose: 0, 500, 1000 PPM IN DIET): inactive; negative
carcinogen call (Species: MOUSE, Strain/Sex: B6C3F1/MALE, Route: ORAL, Dose: 0, 500, 1000 PPM IN DIET, Dose: 0, 500, 1000 PPM IN DIET): inactive; negative
carcinogen call (Species: Mouse, Strain/Sex: CD-1/Female, Route: Oral, Dose: 0, 50, 250, 1250 ppm in feed for 2 yrs, Dose: 0, 50, 250, 1250 ppm in feed for 2 yrs): inactive; negative; purity 93.5%
carcinogen call (Species: Mouse, Strain/Sex: CD-1/Male, Route: Oral, Dose: 0, 50, 250, 1250 ppm in feed for 2 yrs, Dose: 0, 50, 250, 1250 ppm in feed for 2 yrs): inactive; negative; purity 93.5%
carcinogen call (Species: RAT, Strain/Sex: F344/FEMALE, Route: ORAL, Dose: 0, 500, 1000 PPM IN DIET, Dose: 0, 500, 1000 PPM IN DIET): inactive; negative
carcinogen call (Species: RAT, Strain/Sex: F344/MALE, Route: ORAL, Dose: 0, 500, 1000 PPM IN DIET, Dose: 0, 500, 1000 PPM IN DIET): inactive; negative
carcinogen call (Species: Rat, Strain/Sex: Sprague Dawley/Female, Route: Oral, Dose: 0, 50, 330, 2000 ppm in feed for 104 wks, Dose: 0, 50, 330, 2000 ppm in feed for 104 wks): inactive; negative; purity 93.5%
carcinogen call (Species: Rat, Strain/Sex: Sprague Dawley/Male, Route: Oral, Dose: 0, 50, 330, 2000 ppm in feed for 104 wks, Dose: 0, 50, 330, 2000 ppm in feed for 104 wks): inactive; negative; purity 93.5%

Nc1ccc(-c2ccc(N)c(Cl)c2)cc1Cl
carcinogen call (Species: HAMSTER, Route: ORAL, Tumor Site: Type of Lesion: URINARY BLADDER): active; positive
carcinogen call (Species: RAT, Route: ORAL, Tumor Site: Type of Lesion: EAR (ZYMBAL GLAND), MAMMARY GLAND, INTEGUMENTARY SYSTEM (SKIN), HEMATOPOIETIC SYSTEM, URINARY BLADDER, Tumor Site: Type of Lesion: EAR (ZYMBAL GLAND), MAMMARY GLAND, INTEGUMENTARY SYSTEM (SKIN), HEMATOPOIETIC SYSTEM, URINARY BLADDER): active; positive
carcinogen call (Species: RAT, Route: SUBCUTANEOUS, Tumor Site: Type of Lesion: MAMMARY GLAND, INTEGUMENTARY SYSTEM (SKIN)): active; positive

CN1COCN(Cc2cnc(Cl)s2)/C1=N/[N+](=O)[O-]
carcinogen call (Species: MOUSE, Strain/Sex: TIF:MAGF/MALE, Route: DIET, Dose: 0, 50, 200, 500, 1250, 2500, 5000 PPM IN DIET FOR UP TO 50 WKS (STUDY DURATION: 50 WKS), Dose: 0, 50, 200, 500, 1250, 2500, 5000 PPM IN DIET FOR UP TO 50 WKS (STUDY DURATION: 50 WKS)): inactive; negative for tumors but apoptosis and necrosis observed in liver at doses of 500
carcinogen call (Species: RAT, Strain/Sex: TIF:RAIF/FEMALE, Route: ORAL (DIET), Dose: 0, 1000, 3000 PPM FOR 1, 10, 20, 30, 40, OR 50 WKS, Dose: 0, 1000, 3000 PPM FOR 1, 10, 20, 30, 40, OR 50 WKS): inactive; negative
